Some test systems named below: MDA-N; SF-295 CNS; SF-539 CNS; T-47D breast; MOLT-4 leukemia; IGROV1 ovarian; NCI-H460 lung; SF-268 CNS; HOP-62 NSCLC; SNB-19 CNS; K-562 leukemia; COLO 205 colon; MCF7 breast; NCI/ADR-RES ovarian; TK-10 renal; HOP-92 NSCLC; CAKI-1 renal; NCI-H23 lung; MALME-3M melanoma.
Assay in all cases: NCI-60 cell line screen, 48 h

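Cells were grown in 96-well plates and exposed to each compound for 48 hours at five concentrations; endpoints were interpolated linearly between bracketing concentrations, or set to the highest concentration if not reached. At the TGI there is no net growth.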

Take `CC(=O)OC1CC[C@@]2(C)C(C1)CC(OC(C)=O)[C@@H]1C2CC(OC(C)=O)[C@]2(C)C(C(C)CC=C(c3ccc(Cl)cc3)c3ccc(Cl)cc3)CCC12` (some centres undefined): the TGI in the test with MDA-N, in the test on SF-295 CNS, in the test on SF-539 CNS, in the test with T-47D breast, with MOLT-4 leukemia and with IGROV1 ovarian was over 100 µM each time. Also, the TGI in the test on NCI-H460 lung, in the test with SF-268 CNS, in the test with HOP-62 NSCLC, in the test with SNB-19 CNS, with K-562 leukemia and in the test on COLO 205 colon was over 100 µM in each case. In addition, the TGI with MCF7 breast, with NCI/ADR-RES ovarian and in the test with TK-10 renal was over 100 µM each time.

As to `CC(/C=N\NC(=S)N(C)C)=N/NC(=S)N(C)C`, the TGI with MDA-N is over 100 µM; with SF-295 CNS, over 100 µM; in the test with SF-539 CNS it was over 100 µM; in the test with T-47D breast, 2.78 µM; with HOP-92 NSCLC, 31.2 µM; in the test with MOLT-4 leukemia, over 100 µM. In addition, the TGI was 16.9 µM in the test on IGROV1 ovarian; over 100 µM in the test with NCI-H460 lung; over 29.3 µM in the test with SF-268 CNS; over 56.2 µM in the test with CAKI-1 renal; over 51.1 µM with HOP-62 NSCLC; over 37.7 µM in the test with NCI-H23 lung. Moreover, the TGI in the test with SNB-19 CNS is over 100 µM; with K-562 leukemia, over 100 µM; in the test on COLO 205 colon, 33.7 µM; in the test with MCF7 breast, over 100 µM; in the test on MALME-3M melanoma, over 34.2 µM; with TK-10 renal, over 100 µM.

As for `COC(=O)c1nc(-c2nc(CCNC(=O)OC(C)(C)C)sc2Cl)sc1Cl`, the TGI with MDA-N is over 100 µM; in the test with SF-295 CNS it was over 100 µM; in the test with SF-539 CNS, over 100 µM; in the test with HOP-92 NSCLC, 67.2 µM; with MOLT-4 leukemia, over 100 µM; in the test with IGROV1 ovarian, over 100 µM. Also, the TGI with NCI-H460 lung, in the test on SF-268 CNS, in the test on HOP-62 NSCLC, in the test with NCI-H23 lung, in the test on SNB-19 CNS and with K-562 leukemia was over 100 µM each time. Also, the TGI with COLO 205 colon, in the test with MCF7 breast, in the test with NCI/ADR-RES ovarian, in the test on MALME-3M melanoma and in the test with TK-10 renal was over 100 µM each time.

As for `CC(=O)Oc1cc(C)c(OC(C)=O)c2c1[C@H]1CC[C@]3(C)[C@@H](OC(C)=O)CC[C@H]3[C@@H]1CC2`, the TGI with MDA-N stood at 28.2 µM; in the test on SF-295 CNS, 37.2 µM; in the test with SF-539 CNS it was 35.4 µM; in the test on HOP-92 NSCLC, 23.7 µM; in the test on MOLT-4 leukemia, 33.7 µM; in the test on IGROV1 ovarian, 32.9 µM. Moreover, the TGI is 33.1 µM in the test on NCI-H460 lung; 47.6 µM in the test on SF-268 CNS; 31.5 µM in the test on CAKI-1 renal; 34.4 µM with HOP-62 NSCLC; 34.8 µM in the test with NCI-H23 lung; 32.2 µM in the test with SNB-19 CNS. The TGI in the test on K-562 leukemia amounted to 86.1 µM; with MCF7 breast, 36.1 µM; in the test on NCI/ADR-RES ovarian, 41.2 µM; in the test on MALME-3M melanoma, 36 µM; in the test with TK-10 renal, 31.6 µM.

On to `CC(C)(CC#N)c1cc(CC(C)(C)c2cc(CC(C)(C)c3cc(C(C)(C)C4(C)OCCO4)no3)no2)no1`, for which the TGI in the test on MDA-N, in the test on SF-295 CNS, with T-47D breast, in the test on MOLT-4 leukemia, in the test on IGROV1 ovarian and in the test with SF-268 CNS was over 100 µM in each case. Also, the TGI was 87.2 µM in the test with CAKI-1 renal; over 100 µM in the test on HOP-62 NSCLC; over 100 µM with NCI-H23 lung; 77.7 µM with SNB-19 CNS; over 100 µM in the test on K-562 leukemia; over 100 µM with COLO 205 colon. Besides, the TGI in the test with MCF7 breast, in the test with NCI/ADR-RES ovarian, in the test on MALME-3M melanoma and with TK-10 renal was over 100 µM throughout.

Consider `CC(=O)c1sc(Nc2ccc(Cl)c(Cl)c2)nc1C`, for which the TGI in the test with MDA-N is over 100 µM; in the test on SF-295 CNS, over 100 µM; in the test on SF-539 CNS, over 100 µM; in the test on T-47D breast, over 100 µM; in the test with MOLT-4 leukemia it was 83.8 µM; in the test with IGROV1 ovarian it was over 100 µM. Besides, the TGI in the test with NCI-H460 lung, in the test with SF-268 CNS, in the test with CAKI-1 renal, in the test with HOP-62 NSCLC, in the test with NCI-H23 lung and in the test with SNB-19 CNS was over 100 µM in each case. The TGI in the test on COLO 205 colon, with MCF7 breast, in the test with NCI/ADR-RES ovarian, in the test with MALME-3M melanoma and in the test on TK-10 renal was over 100 µM throughout.

Take `C/C(=N\Nc1nc2ccccc2o1)c1cc(C)ncn1`: the TGI is over 100 µM in the test on MDA-N; 5.77 µM in the test with SF-539 CNS; over 21.7 µM with HOP-92 NSCLC; 3.09 µM with MOLT-4 leukemia; 1.51 µM with IGROV1 ovarian; 30.5 µM in the test with NCI-H460 lung. Moreover, the TGI with CAKI-1 renal is 42.5 µM; in the test on HOP-62 NSCLC it was over 35.3 µM; in the test on NCI-H23 lung it was over 43.7 µM; with SNB-19 CNS, over 100 µM; in the test with K-562 leukemia, over 100 µM; in the test on COLO 205 colon, over 40.8 µM. Also, the TGI in the test on MCF7 breast was over 85.3 µM; in the test on NCI/ADR-RES ovarian, 0.0739 µM; with MALME-3M melanoma, 33.1 µM.

For `CCCC(=O)Oc1ccc2c(C)cc(=O)oc2c1OC(=O)CCC`, the TGI in the test with MDA-N was over 100 µM; in the test with SF-295 CNS it was over 100 µM; in the test with SF-539 CNS, over 100 µM; in the test with HOP-92 NSCLC, 99.6 µM; in the test on MOLT-4 leukemia, over 100 µM; in the test with IGROV1 ovarian, over 100 µM. For the same compound, the TGI in the test with SF-268 CNS, in the test on HOP-62 NSCLC, in the test on NCI-H23 lung, with SNB-19 CNS, with K-562 leukemia and with COLO 205 colon was over 100 µM throughout. Further, the TGI in the test on MCF7 breast, in the test with NCI/ADR-RES ovarian, with MALME-3M melanoma and in the test with TK-10 renal was over 100 µM throughout.

For `O=C(NCCNCCNC(=O)C(F)(F)F)C(F)(F)F`, the TGI with MDA-N, in the test with SF-295 CNS, in the test on T-47D breast, in the test on MOLT-4 leukemia, in the test on IGROV1 ovarian and in the test on SF-268 CNS was over 100 µM in each case. The TGI with CAKI-1 renal, with HOP-62 NSCLC, in the test on NCI-H23 lung, in the test on SNB-19 CNS, in the test with K-562 leukemia and in the test on COLO 205 colon was over 100 µM throughout. For the same compound, the TGI with MCF7 breast, with NCI/ADR-RES ovarian, with MALME-3M melanoma and in the test on TK-10 renal was over 100 µM throughout.

Take `CCN(CC)c1ccc2cc(C(=O)Nc3nc(C45CC6CC(CC(C6)C4)C5)cs3)c(=O)oc2c1`: the TGI in the test with MDA-N, in the test with SF-295 CNS, in the test on SF-539 CNS, in the test with HOP-92 NSCLC, with MOLT-4 leukemia and in the test on IGROV1 ovarian was over 100 µM each time. Besides, the TGI in the test with NCI-H460 lung, with SF-268 CNS, in the test on CAKI-1 renal, with HOP-62 NSCLC, in the test with NCI-H23 lung and with SNB-19 CNS was over 100 µM each time. Besides, the TGI with K-562 leukemia, in the test on COLO 205 colon, with MCF7 breast, in the test on NCI/ADR-RES ovarian, in the test on MALME-3M melanoma and with TK-10 renal was over 100 µM throughout.

On to `CCOC(=O)/C(C[C@H]1OC(C)(C)O[C@@H]1[C@H]1COC(C)(C)O1)=N/O`, for which the TGI in the test with MDA-N, with SF-295 CNS, in the test on SF-539 CNS, in the test on HOP-92 NSCLC, in the test on MOLT-4 leukemia and with IGROV1 ovarian was over 100 µM each time. The TGI with NCI-H460 lung, in the test on SF-268 CNS, in the test with CAKI-1 renal, in the test on HOP-62 NSCLC, with NCI-H23 lung and in the test with SNB-19 CNS was over 100 µM throughout. The TGI in the test with K-562 leukemia, in the test with COLO 205 colon, in the test on MCF7 breast, in the test on NCI/ADR-RES ovarian, with MALME-3M melanoma and in the test with TK-10 renal was over 100 µM throughout.

Take `Cc1n[nH]c(=O)n1/N=C/c1ccncc1`: the TGI in the test with MDA-N, in the test with SF-295 CNS, in the test with SF-539 CNS, with T-47D breast, in the test on HOP-92 NSCLC and in the test on MOLT-4 leukemia was over 100 µM in each case. Also, the TGI in the test with IGROV1 ovarian, in the test with NCI-H460 lung, in the test on SF-268 CNS, with CAKI-1 renal, in the test with HOP-62 NSCLC and with NCI-H23 lung was over 100 µM in each case. Besides, the TGI in the test with SNB-19 CNS, in the test with K-562 leukemia, in the test with COLO 205 colon, in the test with NCI/ADR-RES ovarian, in the test on MALME-3M melanoma and in the test with TK-10 renal was over 100 µM in each case.

In the case of `O=C1CCCCC(=O)Nc2ccccc2N1`, the TGI in the test with MDA-N, in the test with SF-295 CNS, with SF-539 CNS, with T-47D breast, with HOP-92 NSCLC and in the test with MOLT-4 leukemia was over 100 µM throughout. The TGI in the test on IGROV1 ovarian, with NCI-H460 lung, with SF-268 CNS, with CAKI-1 renal, in the test on HOP-62 NSCLC and with NCI-H23 lung was over 100 µM throughout. The TGI in the test with SNB-19 CNS, in the test with K-562 leukemia, in the test on COLO 205 colon, in the test with NCI/ADR-RES ovarian, in the test on MALME-3M melanoma and in the test on TK-10 renal was over 100 µM each time.

The values are drawn from PubChem BioAssay (NCI).
